Tested on: 276233-004-R-J1-PDC complex spheroid viability
Assay: Anticancer human tumor 276233-004-R-J1-PDC patient-derived colon adenocarcinoma cell line growth inhibition [GQUAD]
Details: for IC50: curve of first compound; for viability, T/C: stronger effect = lower value
Outline: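 Viability of tumor cells grown as complex spheroids with endothelial and stromal cells, exposed to drug combinations. Top concentration at or near clinical Cmax (else 10 microM), diluted in half-log increments.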

[1] = second compound 0.0316 µM, first compound 0.0316 µM
[2] = second compound 0.0316 µM, first compound 0.1 µM
[3] = second compound 0.0316 µM, first compound 0.316 µM
[4] = second compound 0.0316 µM, first compound 1 µM
[5] = second compound 0.0316 µM, first compound 3.16 µM
[6] = second compound 0.0316 µM, first compound 10 µM
[7] = second compound 0.1 µM, first compound 0.0316 µM
[8] = second compound 0.1 µM, first compound 0.1 µM
[9] = second compound 0.1 µM, first compound 0.316 µM
[10] = second compound 0.1 µM, first compound 1 µM
[11] = second compound 0.1 µM, first compound 3.16 µM
[12] = second compound 0.1 µM, first compound 10 µM
[13] = second compound 0.316 µM, first compound 0.0316 µM
[14] = second compound 0.316 µM, first compound 0.1 µM
[15] = second compound 0.316 µM, first compound 0.316 µM
[16] = second compound 0.316 µM, first compound 1 µM
[17] = second compound 0.316 µM, first compound 3.16 µM
[18] = second compound 0.316 µM, first compound 10 µM
[19] = second compound 1 µM, first compound 0.0316 µM
[20] = second compound 1 µM, first compound 0.1 µM
[21] = second compound 1 µM, first compound 0.316 µM
[22] = second compound 1 µM, first compound 1 µM
[23] = second compound 1 µM, first compound 3.16 µM
[24] = second compound 1 µM, first compound 10 µM
[25] = second compound 3.16 µM, first compound 0.0316 µM
[26] = second compound 3.16 µM, first compound 0.1 µM
[27] = second compound 3.16 µM, first compound 0.316 µM
[28] = second compound 3.16 µM, first compound 1 µM
[29] = second compound 3.16 µM, first compound 3.16 µM
[30] = second compound 3.16 µM, first compound 10 µM
[31] = second compound 10 µM, first compound 0.0316 µM
[32] = second compound 10 µM, first compound 0.1 µM
[33] = second compound 10 µM, first compound 0.316 µM
[34] = second compound 10 µM, first compound 1 µM
[35] = second compound 10 µM, first compound 3.16 µM
[36] = second compound 10 µM, first compound 10 µM
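Also: spheroids exposed to drugs for seven days.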
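For viability, T/C in this document: 100% = DMSO vehicle control viability.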

Structure (SMILES): CC1COCCN1c1cc(C2(O)CC3CCC(C2)O3)c2cnn(-c3ccn[nH]3)c2n1 (stereo not given) + Cc1cnc(CNC(=O)c2c(=O)c3ccc(N4CCCN(C)CC4)nc3n3c2sc2ccccc23)cn1
- IC50 (second compound 0.0316 µM): 3100 nM
- IC50 (second compound 0.1 µM): 3560 nM
- IC50 (second compound 0.316 µM): 1470 nM
- IC50 (second compound 1 µM): 1020 nM
- IC50 (second compound 3.16 µM): 642 nM
- IC50 (second compound 10 µM): 271 nM
- viability, T/C [1]: 81%
- viability, T/C [2]: 61.9%
- viability, T/C [3]: 79.2%
- viability, T/C [4]: 50.7%
- viability, T/C [5]: 52.1%
- viability, T/C [6]: 40.3%
- viability, T/C [7]: 79.7%
- viability, T/C [8]: 80.7%
- viability, T/C [9]: 60.6%
- viability, T/C [10]: 63.5%
- viability, T/C [11]: 56.3%
- viability, T/C [12]: 35.8%
- viability, T/C [13]: 71.1%
- viability, T/C [14]: 85.3%
- viability, T/C [15]: 62.6%
- viability, T/C [16]: 50.6%
- viability, T/C [17]: 48.7%
- viability, T/C [18]: 32.9%
- viability, T/C [19]: 68.8%
- viability, T/C [20]: 75%
- viability, T/C [21]: 50.4%
- viability, T/C [22]: 50%
- viability, T/C [23]: 44.6%
- viability, T/C [24]: 24.9%
- viability, T/C [25]: 55.7%
- viability, T/C [26]: 59.7%
- viability, T/C [27]: 56.4%
- viability, T/C [28]: 44.8%
- viability, T/C [29]: 35.9%
- viability, T/C [30]: 24.6%
- viability, T/C [31]: 63.2%
- viability, T/C [32]: 60.1%
- viability, T/C [33]: 46.9%
- viability, T/C [34]: 41.7%
- viability, T/C [35]: 35.6%
- viability, T/C [36]: 20%

Structure (SMILES): Nc1ccn(C2OC(CO)C(O)C2(F)F)c(=O)n1 (stereo not given) + Cc1cnc(CNC(=O)c2c(=O)c3ccc(N4CCCN(C)CC4)nc3n3c2sc2ccccc23)cn1
- IC50 (second compound 0.0316 µM): > 10000 nM
- IC50 (second compound 0.1 µM): > 10000 nM
- IC50 (second compound 0.316 µM): > 10000 nM
- IC50 (second compound 1 µM): > 10000 nM
- IC50 (second compound 3.16 µM): > 10000 nM
- IC50 (second compound 10 µM): > 10000 nM
- viability, T/C [1]: 82.7%
- viability, T/C [2]: 77.7%
- viability, T/C [3]: 83.8%
- viability, T/C [4]: 81.1%
- viability, T/C [5]: 88.4%
- viability, T/C [6]: 72.6%
- viability, T/C [7]: 89.8%
- viability, T/C [8]: 87.9%
- viability, T/C [9]: 80.7%
- viability, T/C [10]: 93.3%
- viability, T/C [11]: 84.4%
- viability, T/C [12]: 79.9%
- viability, T/C [13]: 80%
- viability, T/C [14]: 97.9%
- viability, T/C [15]: 86.6%
- viability, T/C [16]: 80.4%
- viability, T/C [17]: 77%
- viability, T/C [18]: 76.7%
- viability, T/C [19]: 94.2%
- viability, T/C [20]: 78.8%
- viability, T/C [21]: 105%
- viability, T/C [22]: 83.8%
- viability, T/C [23]: 82.5%
- viability, T/C [24]: 79.9%
- viability, T/C [25]: 80%
- viability, T/C [26]: 68%
- viability, T/C [27]: 91.8%
- viability, T/C [28]: 73.2%
- viability, T/C [29]: 66.3%
- viability, T/C [30]: 62.3%
- viability, T/C [31]: 65.8%
- viability, T/C [32]: 75.2%
- viability, T/C [33]: 69.5%
- viability, T/C [34]: 78.2%
- viability, T/C [35]: 65.2%
- viability, T/C [36]: 57.5%

Structure (SMILES): O=C(NO)c1cnc(N2CCN(S(=O)(=O)c3ccc4ccccc4c3)CC2)nc1 + Cc1cnc(CNC(=O)c2c(=O)c3ccc(N4CCCN(C)CC4)nc3n3c2sc2ccccc23)cn1
- IC50 (second compound 0.0316 µM): 456 nM
- IC50 (second compound 0.1 µM): 284 nM
- IC50 (second compound 0.316 µM): 281 nM
- IC50 (second compound 1 µM): 195 nM
- IC50 (second compound 3.16 µM): 146 nM
- IC50 (second compound 10 µM): 112 nM
- viability, T/C [1]: 102%
- viability, T/C [2]: 86.2%
- viability, T/C [3]: 69%
- viability, T/C [4]: 10.2%
- viability, T/C [5]: 5.35%
- viability, T/C [6]: 4.15%
- viability, T/C [7]: 93.9%
- viability, T/C [8]: 94.6%
- viability, T/C [9]: 44.4%
- viability, T/C [10]: 13.8%
- viability, T/C [11]: 5.07%
- viability, T/C [12]: 3.5%
- viability, T/C [13]: 84.6%
- viability, T/C [14]: 85.2%
- viability, T/C [15]: 46%
- viability, T/C [16]: 6.38%
- viability, T/C [17]: 5.3%
- viability, T/C [18]: 5.47%
- viability, T/C [19]: 67.8%
- viability, T/C [20]: 86%
- viability, T/C [21]: 30.5%
- viability, T/C [22]: 6.13%
- viability, T/C [23]: 4.71%
- viability, T/C [24]: 4.58%
- viability, T/C [25]: 72.2%
- viability, T/C [26]: 63.9%
- viability, T/C [27]: 21.5%
- viability, T/C [28]: 5.71%
- viability, T/C [29]: 5.15%
- viability, T/C [30]: 5.15%
- viability, T/C [31]: 71.6%
- viability, T/C [32]: 54.2%
- viability, T/C [33]: 11.4%
- viability, T/C [34]: 5.41%
- viability, T/C [35]: 4.71%
- viability, T/C [36]: 3.76%

Structure (SMILES): COc1cc(C2c3cc4c(cc3C(OC3OC5COC(C)OC5C(O)C3O)C3COC(=O)C23)OCO4)cc(OC)c1O (stereo not given) + Cc1[nH]c2ccc(F)cc2c1-c1nc2c3cccnc3c3ncccc3c2[nH]1
- IC50 (second compound 0.0316 µM): > 10000 nM
- IC50 (second compound 0.1 µM): > 10000 nM
- IC50 (second compound 0.316 µM): > 10000 nM
- IC50 (second compound 1 µM): > 10000 nM
- IC50 (second compound 3.16 µM): 2820 nM
- IC50 (second compound 10 µM): < 31.6 nM
- viability, T/C [1]: 72.9%
- viability, T/C [2]: 82.7%
- viability, T/C [3]: 111%
- viability, T/C [4]: 80.6%
- viability, T/C [5]: 89.2%
- viability, T/C [6]: 83.7%
- viability, T/C [7]: 89.9%
- viability, T/C [8]: 110%
- viability, T/C [9]: 84.2%
- viability, T/C [10]: 78.9%
- viability, T/C [11]: 83.7%
- viability, T/C [12]: 76.3%
- viability, T/C [13]: 79.8%
- viability, T/C [14]: 79.7%
- viability, T/C [15]: 85.2%
- viability, T/C [16]: 101%
- viability, T/C [17]: 83%
- viability, T/C [18]: 69%
- viability, T/C [19]: 78.4%
- viability, T/C [20]: 65.1%
- viability, T/C [21]: 71.4%
- viability, T/C [22]: 64.9%
- viability, T/C [23]: 73.7%
- viability, T/C [24]: 64.2%
- viability, T/C [25]: 53%
- viability, T/C [26]: 63.3%
- viability, T/C [27]: 52%
- viability, T/C [28]: 65.7%
- viability, T/C [29]: 47.3%
- viability, T/C [30]: 50.9%
- viability, T/C [31]: 50.1%
- viability, T/C [32]: 49.6%
- viability, T/C [33]: 44.2%
- viability, T/C [34]: 50.9%
- viability, T/C [35]: 41%
- viability, T/C [36]: 45%

Structure (SMILES): C=CC(=O)N1CCN(c2nc(=O)n(-c3c(C)ccnc3C(C)C)c3nc(-c4c(O)cccc4F)c(F)cc23)C(C)C1 (stereo not given) + Cc1[nH]c2ccc(F)cc2c1-c1nc2c3cccnc3c3ncccc3c2[nH]1
- IC50 (second compound 0.0316 µM): > 10000 nM
- IC50 (second compound 0.1 µM): > 10000 nM
- IC50 (second compound 0.316 µM): > 10000 nM
- IC50 (second compound 1 µM): > 10000 nM
- IC50 (second compound 3.16 µM): > 10000 nM
- IC50 (second compound 10 µM): < 31.6 nM
- viability, T/C [1]: 106%
- viability, T/C [2]: 95.5%
- viability, T/C [3]: 85.4%
- viability, T/C [4]: 90%
- viability, T/C [5]: 95.2%
- viability, T/C [6]: 88.5%
- viability, T/C [7]: 102%
- viability, T/C [8]: 91.9%
- viability, T/C [9]: 103%
- viability, T/C [10]: 108%
- viability, T/C [11]: 81.4%
- viability, T/C [12]: 93%
- viability, T/C [13]: 75.5%
- viability, T/C [14]: 94.9%
- viability, T/C [15]: 74.5%
- viability, T/C [16]: 83.4%
- viability, T/C [17]: 87.4%
- viability, T/C [18]: 84.4%
- viability, T/C [19]: 81.4%
- viability, T/C [20]: 90.4%
- viability, T/C [21]: 78.4%
- viability, T/C [22]: 73.4%
- viability, T/C [23]: 84.9%
- viability, T/C [24]: 80.9%
- viability, T/C [25]: 70.7%
- viability, T/C [26]: 50.6%
- viability, T/C [27]: 49.4%
- viability, T/C [28]: 52.3%
- viability, T/C [29]: 68.6%
- viability, T/C [30]: 52.2%
- viability, T/C [31]: 39%
- viability, T/C [32]: 38.7%
- viability, T/C [33]: 61%
- viability, T/C [34]: 53.1%
- viability, T/C [35]: 56%
- viability, T/C [36]: 51%

— PubChem BioAssay AID2060496 (Molecular Pharmacology Branch, DTP, NCI, 2025)
